Source: US20230416257A1, “TOLL-LIKE RECEPTOR AGONIST” (priority 2020, published 2023)

System: antigen-specific T cells in the draining lymph nodes (LN) and spleen
Assay: A/Vic murine vaccine model: cytokine secretion by antigen-stimulated T cells
Format: in vivo
Settings: immunized mice, 5 days after tertiary immunization (day 33); comparison of UM-2014 and UM-1007; FIG. 4
Description: The adjuvanticity of liposomal formulations of UM-2014 (1 and 10 μg doses) was evaluated in an A/Vic murine vaccine model. Mice were intramuscularly immunized at day 0, 14, and 28, with blood collection at day 14 and day 28 (14dp1 and 14dp2, respectively). A tertiary immunization at day 28 was administered to assess cytokine production of antigen-specific T cells in the draining lymph nodes (LN) and spleen 5 days later (day 33).

CCCCCCCCCCCCCCCC(=O)OC[C@H](COCCOCCOCCOP(=O)(O)OCCN1CCC(Cn2c(O)nc3c(N)nc(O[C@@H](C)CCC)nc32)CC1)OC(=O)CCCCCCCCCCCCCCC [UM-1007]
cytokine secretion by antigen-stimulated T cells from draining LNs and spleen: very similar
